{"source": "patent US20050222183A1", "about": "“Combination of zd6474, an inhibitor of the vascular endothelial growth factor receptor, with radiotherapy in the treatment of cancer” (priority 2002, published 2005)", "key": {"[1]": {"tested_on": "Calu-6 (lung carcinoma) tumour xenografts", "assay": "Calu-6 xenograft model: ZD6474 25 mg/kg given after ionising radiation", "type": "in vivo, female Alderley Park nude mice", "method": "Calu-6 (lung carcinoma) cells were obtained from the American Type Culture Collection (Manassas, Va.). All cell culture reagents, where not specified, were obtained from Life Technologies, Paisley, UK. Cells were maintained as exponentially growing monolayers in Eagle's Minimal Essential Medium (EMEM) containing 10% FCS (Labtech International, Ringmer, UK), 2 mM L-glutamine (Sigma Chemical Co., Poole, UK), 1% sodium pyruvate (100 mM) and 1% non-essential amino acids. Cells were periodically screened for the presence of microplasma in culture, and analysed for 15 types of virus in a mouse antibody production test (AstraZeneca Central Toxicology Laboratories, Alderley Park, UK) prior to routine use in vivo.\nCalu-6 cells (2×10^7 cells/ml) were prepared for implantation in a mixture of 50% (v/v) matrigel (Fred Baker, Liverpool, UK) in serum free Roswell Park Memorial Institute (RPMI)-1640 media. Tumour xenografts were established by subcutaneously injecting 0.1 ml of the cell suspension (i.e. 2×10^6 cells/mouse) into female Alderley Park nude mice (nu/nu genotype; 8-10 weeks of age). Once a palpable tumour was evident, tumour volume was assessed daily by calliper measurement and calculated using the formula, length×width×height.\nMice were randomised into groups of eight, prior to treatment, when tumours measured 225-315 mm^3. Ionising radiation, where given, was administered at a dose rate of 2 Gy per min to unanaesthetised mice restrained in polyvinyl jigs with lead shielding and a cut away section to allow local irradiation of the tumour by the unilateral beam (Pantac X-ray set). Jigs were turned through 180° halfway through the radiation exposure time to provide a uniform dosing. Radiation was administered either as a single dose (5 Gy on day 1) or by multiple daily dosing (2 Gy/day on days 1-3). Thirty minutes after the last dose of radiation, ZD6474 (25 mg/kg), or vehicle, was administered by oral gavage (0.1 ml/10 g body weight) and then once-daily thereafter for a further 13 days (i.e. 14 days of oral treatment in total). ZD6474 was prepared as a suspension in 1% polysorbate 80 (i.e. a 1% (v/v) solution of polyoxyethylene (20) sorbitan mono-oleate in deionised water). Mice were humanely killed when the relative volume of their tumour reached four times that at the initiation of therapy (RTV4). A two-tailed two-sample t-test was used to evaluate the significance of the results obtained."}, "[2]": {"tested_on": "Calu-6 tumours", "assay": "Calu-6 xenograft model: schedules, ZD6474 50 mg/kg concurrent or sequential with radiotherapy", "type": "in vivo, mice", "conditions": "for Growth delay (days ± SE): RTV4 relative to control", "method": "In an analogous experiment using the Calu-6 xenograft model described hereinbefore different schedules were investigated.\nMice bearing Calu-6 tumours (220-300 mm^3) were randomized into groups of eight, to receive either ZD6474 (50 mg/kg p.o. once daily) or vehicle only (1% polysorbate in deionized water) for the duration of the experiment. ZD6474, or vehicle, was also administered with or without radiotherapy (3×2 Gy at 24-hour intervals during the first 3 days of treatment). Where mice received 50 mg/kg ZD6474 plus radiation therapy, two treatment schedules were examined. • a) Concurrent combination treatment: ZD6474 dosing given 2 hours prior to the first dose of radiation; and • b) Sequential combination treatment: ZD6474 dosing given 30 minutes after the last dose of radiotherapy. […]\nTreatment efficacy was assessed by measuring the time for tumours to quadruple in volume (RTV4) from their pretreatment size and calculating the relative growth delay (i.e. comparing RTV4 values from individual treated groups, with that of the control)."}}, "data": [{"smiles": "COc1cc2c(Nc3ccc(Br)cc3F)ncnc2cc1OCC1CCN(C)CC1", "note": "[ZD6474, 4-(4-bromo-2-fluoroanilino)-6-methoxy-7-(1-methylpiperidin-4-ylmethoxy)quinazoline]", "values": [{"measurement": "RTV4", "setting": "[1]; 3 × 2Gy (days 1-3), then ZD6474 25 mg/kg/day oral for 14 days post-irradiation", "value": 28.1, "unit": "days"}, {"measurement": "Therapeutic effect of radiation plus ZD6474 versus either therapy alone", "setting": "[1]; 5 Gy or 3×2 Gy plus ZD6474 25 mg/kg", "value": "better therapeutic effect than either therapy alone"}, {"measurement": "RTV4", "setting": "[1]; 5 Gy single dose on day 1, then ZD6474 25 mg/kg/day oral for 14 days post-irradiation", "value": 25.5, "unit": "days"}, {"measurement": "RTV4", "setting": "[1]; ZD6474 25 mg/kg/day oral for 14 days, no radiation, time for tumour to reach four times its volume at initiation of therapy", "value": 12.1, "unit": "days"}, {"measurement": "Growth delay of combination versus either single treatment", "setting": "[2]; 50 mg/kg ZD6474 combined with 3×2 Gy radiation", "value": "significantly greater than that of either single treatment alone"}, {"measurement": "RTV4 (days ± SE)", "setting": "[2]; 50 mg/kg ZD6474 p.o. once daily, no radiation, n = 8", "value": "17 ± 1.0", "unit": "days"}, {"measurement": "Growth delay (days ± SE)", "setting": "[2]; 50 mg/kg ZD6474 p.o. once daily, no radiation", "value": "9 ± 1.1", "unit": "days"}, {"measurement": "Growth delay (days ± SE)", "setting": "[2]; 3 × 2 Gy plus 50 mg/kg ZD6474 (concurrent)", "value": "22 ± 1.1", "unit": "days"}, {"measurement": "RTV4 (days ± SE)", "setting": "[2]; 3 × 2 Gy plus 50 mg/kg ZD6474 (concurrent: dosing begun 2 hours prior to first dose of radiation)", "value": "30 ± 1.0", "unit": "days"}, {"measurement": "Growth delay (days ± SE)", "setting": "[2]; 3 × 2 Gy plus 50 mg/kg ZD6474 (sequential)", "value": "36 ± 1.0", "unit": "days"}, {"measurement": "RTV4 (days ± SE)", "setting": "[2]; 3 × 2 Gy plus 50 mg/kg ZD6474 (sequential: dosing begun 30 minutes after last dose of radiotherapy)", "value": "44 ± 0.9", "unit": "days"}, {"measurement": "Tumour growth inhibition, sequential versus concurrent combination", "setting": "[2]; 3×2 Gy radiation and 50 mg/kg ZD6474", "value": "inhibited tumour growth significantly more than when the same agents were combined concurrently"}, {"measurement": "Antitumour effect of sequential combination versus sum of individual therapies", "setting": "[2]; sequential 3×2 Gy radiation and 50 mg/kg ZD6474", "value": "greater than the sum of the growth delays induced by the individual therapies"}]}]}
